Reference: paper PMC4850295, “Using a Genetically Encoded Sensor to Identify Inhibitors of Toxoplasma gondii Ca^2+ Signaling” (The Journal of Biological Chemistry, 2016)
Where “and” joins values, the source holds several entries; their conditions need not be identical. Equal values may be shown once. Read-outs that look alike come from different tables or passages of the source.

Tested on: T1, GCaMP5-expressing T. gondii
T1 construct: whole extracellular parasites expressing GCaMP5 Ca2+ sensor
Set-up: species or system GCaMP5-expressing Toxoplasma gondii, extracellular; GCaMP5 fluorescence (cytosolic Ca2+) after 100 uM zaprinast in compound-pretreated extracellular parasites, background-subtracted, relative to zaprinast alone
Conditions: 0.23 h; for fold change in fluorescence relative to zaprinast alone: 100 uM zaprinast stimulation, 10 min pretreatment, mean of two replicates
In short: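 Extracellular GCaMP5-expressing parasites in Ringer's solution were pretreated with compounds (single 10 μM dose, two biological replicates) for 10 min, then stimulated with 100 μM zaprinast at 37 °C for 4 min. Fluorescence read at 485/525 nm, basal subtracted, expressed as fold change relative to zaprinast-only parasites.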

SMILES | fold change in fluorescence relative to zaprinast alone | further results
COc1ccc2cc(-c3c(-c4ccncc4)nc(-c4ccc([S+](C)[O-])cc4)n3C)ccc2c1 (stereo not drawn) [SB-437013] | 1.038 | 
NCc1ccc(-c2nc(-c3ccc(Cl)c(O)c3)c(-c3ccncc3)[nH]2)cc1 [SB-476429-A] | 1.226 | 
Nc1[nH]nc2ncc(-c3ccccc3)cc12 [SB-517081] | 0.8708 | 
Nc1n[nH]c2nnc(-c3ccccc3)cc12 [SB-517389] | 1.055 | 
CC(=O)Nc1[nH]nc2ncc(-c3ccccc3)cc12 [SB-548492] | 1.137 | 
COc1ccc(-c2oc3ncnc(N)c3c2-c2ccc(OC)cc2)cc1 [SB-589132] | 1.026 | 
CCN(CC)CCOc1ccc(Nc2ncc3cc(-c4c(Cl)cccc4Cl)c(=O)n(C)c3n2)cc1 [SB-601273] | 0.7002 | 
CCCC(=O)Nc1[nH]nc2ncccc12 [SB-601436] | 0.9225 | 
COc1cccc(-c2nc(-c3ccccc3)[nH]c2-c2ccncc2)c1 [SB-610250] | 0.7579 | 
Oc1cccc(-c2nc(-c3ccccc3)[nH]c2-c2ccncc2)c1 [SB-610251-B] | 1.022 | 
ON=C1CCc2cc(-c3nc(C4CCNCC4)[nH]c3-c3ccncc3)ccc21 [SB-614067-R] | 1.048 | 
COc1ccc2cc(-c3c(-c4ccncc4)nc(-c4ccc(SC)cc4C)n3C)ccc2c1 [SB-625086-M] | 0.941 | 
CN(C)CCCC(=O)Nc1n[nH]c2nnc(-c3ccccc3)cc12 [SB-627772-A] | 1.028 | 
COc1ccc2cc(-c3c(-c4ccncc4)nc(-c4ccc([S+](C)[O-])cc4C)n3C)ccc2c1 (stereo not drawn) [SB-630812] | 1.111 | 
COc1ccc2cc(-c3c(-c4ccncc4)nc(-c4ccc(S(C)(=O)=O)cc4C)n3C)ccc2c1 [SB-633825] | 0.9532 | 
CCCC(=O)Nc1[nH]nc2ncc(-c3cccc4ccccc34)cc12 [SB-642057] | 0.9221 | 
Nc1n[nH]c2cnc(-c3ccccc3)cc12 [SB-642124-AAA] | 1.394 | 
COc1ccc2cc(-c3nc(-c4ccccc4C(C)C)[nH]c3-c3ccncc3)ccc2c1 [SB-660566] | 0.9646 | 
O=C(Nc1n[nH]c2nnc(-c3cccnc3)cc12)C1CC1 [SB-675259-M] |  | % of control remaining (10 µM): 1.147
CN1CCC(C(=O)Nc2n[nH]c3nnc(-c4ccccc4)cc23)CC1 [SB-678557-A] | 1.083 | 
CN(C)CCOc1ccc(-c2cc(-c3ccc(Cl)c(O)c3)c(-c3ccncc3)[nH]2)cc1 [SB-684387-B] | 0.6076 | 
CCN1CCC(C(=O)Nc2n[nH]c3nnc(-c4cccc(F)c4F)cc23)CC1 [SB-686709-A] | 1.08 | 
CCn1c(-c2nonc2N)nc2ccccc21 [SB-693162] |  | fold change in fluorescence relative to zaprinast alone (10 µM): 0.7593 and 1.139
c1ccc(-c2ccnc3[nH]ccc23)cc1 [SB-693578] | 1.319 | 
CCN1CCC(CC(=O)Nc2n[nH]c3nnc(-c4cccc(F)c4F)cc23)CC1 [SB-698596-AC] | 1.047 | 
Nc1ncnc2occ(-c3ccc(NC(=O)Nc4cc(C(F)(F)F)ccc4F)cc3)c12 [SB-707548-A] |  | fold change in fluorescence relative to zaprinast alone (10 µM): 1.011 and 0.2784

SMILES | fold change in fluorescence relative to zaprinast alone | further results
O=C(Nc1n[nH]c2nc(-c3ccccc3)c(Br)cc12)C1CC1 [SB-708998] | 0.9523 | 
O=C(Nc1n[nH]c2nc(-c3ccccc3)ccc12)C1CC1 [SB-708999] | 1.075 | 
O=C(Nc1n[nH]c2nc(-c3ccc(O)cc3)ccc12)C1CC1 [SB-710363] | 1.137 | 
COc1cccc(-c2ccc3c(NC(=O)C4CC4)n[nH]c3n2)c1 [SB-710903] | 1.151 | 
COc1ccc(-c2ccc3c(NC(=O)C4CC4)n[nH]c3n2)cc1 [SB-711237] | 1.177 | 
COc1ccccc1-c1ccc2c(NC(=O)C3CC3)n[nH]c2n1 [SB-711239] | 1.107 | 
O=C(Nc1n[nH]c2nc(-c3cccc(O)c3)ccc12)C1CC1 [SB-711805] | 0.905 | 
O=C(Nc1n[nH]c2nc(-c3ccccc3O)ccc12)C1CC1 [SB-711880] | 1.267 | 
O=C(Nc1n[nH]c2nc(-c3ccc(O)cc3)c(Br)cc12)C1CC1 [SB-725317] | 1.144 | 
Nc1ncnc2scc(-c3ccc(NC(=O)Cc4cc(F)ccc4F)cc3)c12 [SB-731254-M] | 1.242 | 
O=C(Nc1n[nH]c2cc(-c3cccs3)ccc12)C1CC1 [SB-731284] | 1.194 | 
CCN1CCN(CCCC(=O)Nc2n[nH]c3nc(-c4ccc(O)cc4)c(Br)cc23)CC1 [SB-731579] | 1.047 | 
O=C(Nc1n[nH]c2cc(-c3ccsc3)ccc12)C1CC1 [SB-732932] | 1.052 | 
O=C(Nc1n[nH]c2cc(-c3ccccc3)ccc12)C1CC1 [SB-732941] | 1.147 | 
O=C(Nc1n[nH]c2cc(-c3ccccc3F)ccc12)C1CC1 [SB-733371] | 0.8641 | 
CCn1c(-c2ccccc2)nc2cnccc21 [SB-733416] | 1.146 | 
CCn1c(-c2ccoc2)nc2cnccc21 [SB-733887] | 1.127 | 
O=C(Nc1n[nH]c2cc(-c3cccc(F)c3F)ccc12)C1CC1 [SB-733894] | 1.167 | 
Nc1nonc1-c1nc2cnccc2n1C1CCCCC1 [SB-734117] | 1.214 | 
O=C(Nc1n[nH]c2nc(-c3ccccc3)c(Cl)cc12)C1CC1 [SB-734909] | 1.154 | 
CCn1c(-c2ccncc2)nc2cnccc21 [SB-735216] | 1.246 | 
O=C(Nc1n[nH]c2nc(-c3cccs3)c(Br)cc12)C1CC1 [SB-735297] | 1.322 | 
O=C(Nc1n[nH]c2cc(-c3cccc(F)c3)ccc12)C1CC1 [SB-735464] | 1.069 | 
O=C(Nc1n[nH]c2cc(-c3cc(F)ccc3F)ccc12)C1CC1 [SB-735465] | 1.125 | 
O=C(Nc1n[nH]c2cc(-c3ccc(F)cc3)ccc12)C1CC1 [SB-735467] | 0.9628 | 
